Test results from article PMC5716539, “The acute glucose lowering effect of specific GPR120 activation in mice is mainly driven by glucagon-like peptide 1” (PLoS ONE, 2017).
Read-outs that look alike come from different tables or passages of the source.

Tests used:
control CHO cells [1] = assay: cAMP assay in control CHO cells; assay type: cell-based, Chinese hamster
Procedure: CHO-hGPR120 or CHO cells in HBSS (Invitrogen), 20 mM HEPES (Invitrogen), pH 7.4, 0.01% BSA, 1.5 mM 3-isobutyl-1-methylxanthine (Sigma) and d2-labeled cAMP (CisBio) were incubated with GPR120 agonists (1% DMSO) for 45 min at room temperature in white small-volume 384-well plates (Greiner). The reaction was terminated by addition of conjugate and lysis buffer (CisBio) supplemented with anti-cAMP Cryptate (CisBio).

mouse GPR120 = target: T1, mouse GPR120 (Mus musculus, UniProt Q7TMA4); assay: DMR assay in CHO-mGPR120 cells; assay type: cell-based
T1 construct: expressed in transfected cells
T1 sequence (Q7TMA4 1-361): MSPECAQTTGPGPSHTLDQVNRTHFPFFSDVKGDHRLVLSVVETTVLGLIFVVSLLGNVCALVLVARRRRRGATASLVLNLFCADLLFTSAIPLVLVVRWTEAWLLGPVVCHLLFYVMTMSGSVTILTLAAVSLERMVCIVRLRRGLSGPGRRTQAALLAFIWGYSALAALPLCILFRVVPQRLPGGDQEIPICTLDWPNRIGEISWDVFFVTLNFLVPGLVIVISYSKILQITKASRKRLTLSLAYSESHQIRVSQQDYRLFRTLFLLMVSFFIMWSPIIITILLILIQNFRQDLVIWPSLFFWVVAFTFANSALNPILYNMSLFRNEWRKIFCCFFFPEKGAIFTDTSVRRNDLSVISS
Procedure: (§1) DMR (dynamic mass redistribution) was measured by resonant waveguide grating (RWG) using an Epic biosensor (Corning). CHO-hGPR120, CHO-mGPR120 and CHO cells in DMEM/F-12 (Invitrogen) were cultured in fibronectin coated 384-well Epic plates (Corning) at 37°C, 95% humidity and 5% CO2 for 5 hours with 10% FBS (Sigma), followed by 19 hours without FBS. CHO-hGPR40 cells were cultured at 37°C, 95% humidity and 5% CO2 for 20–24 hours in Ham’s F-12 Nutrient Mix with GlutaMAX (Invitrogen) supplemented with Non-Essential Amino Acids (Gibco) and 10% FBS (Sigma) in fibronectin coated 384-well Epic plates (Corning). Following the incubations culture media was replaced with HBSS (Invitrogen), 20 mM HEPES (Invitrogen), pH 7.4 and 1% DMSO and equilibrated to 26°C in the Epic for thirty min before addition of agonists and detection of DMR.

human GPR120 = target: T2, human GPR120 (Homo sapiens, UniProt Q5NUL3); assay: β-arrestin recruitment (Tango) assay in U2OS-hGPR120 cells; assay type: cell-based
T2 construct: expressed in transfected cells
T2 sequence (Q5NUL3 1-361): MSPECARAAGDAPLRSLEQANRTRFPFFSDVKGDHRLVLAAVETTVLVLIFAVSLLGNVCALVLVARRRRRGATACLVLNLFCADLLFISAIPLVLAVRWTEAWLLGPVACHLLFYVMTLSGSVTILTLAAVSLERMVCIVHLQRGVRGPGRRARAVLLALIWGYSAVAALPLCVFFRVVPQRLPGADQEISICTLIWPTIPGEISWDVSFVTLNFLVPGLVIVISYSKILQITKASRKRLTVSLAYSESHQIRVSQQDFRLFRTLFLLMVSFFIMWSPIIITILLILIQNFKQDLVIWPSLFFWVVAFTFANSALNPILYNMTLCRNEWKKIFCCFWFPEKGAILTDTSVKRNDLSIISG
Procedure: U2OS-hGPR120 cells cultured in Freestyle medium (Invitrogen) were incubated for 5 hours with GPR120 agonists in 384-well Cell BIND plates (Corning) at 37°C, 95% humidity and 5% CO2. LiveBLAzer™ FRET B/G working solution (Invitrogen) was added and after 2 hours at room temperature fluorescence intensity (λex = 405 nm, λem = 530 and 460 nm) was detected using a Pherastar FS (BMG Labtech) according to the manufacturers protocol.

[2] = tested on: islets from GPR120 null mice; assay: cAMP production in dispersed islet cells from GPR120 null mice; assay type: cell-based, mouse; conditions: 10 μM agonist
Procedure: Mouse islets were isolated from pancreas by collagenase digestion, handpicked under microscope following multiple washing steps and dispersed to single cells using TrypLE Express (Gibco). The dispersed islet cells (20 000 cells/well) were incubated with the GPR120 agonists for 30 min in 96-well black plates (Corning) at 37°C in Krebs ringer phosphate Hepes buffer, pH 7.4, with 11 mM Glucose, 0.1% BSA and 0.5 mM 3-isobutyl-1-methylxanthine followed by addition of d2-labeled cAMP and anti-cAMP Cryptate in conjugation and lysis buffer (Cisbio). Produced cAMP was detected with homogenous time resolved fluorescence (HTRF) (λex = 340 nm, λem = 665 and 615 nm) using a Pherastar (BMG Labtech).

control CHO cells [3] = assay: DMR assay in control CHO cells; assay type: cell-based, Chinese hamster; conditions: control CHO cells (empty vector)
Procedure: as §1

Row | Compound | cAMP levels in control CHO cells (control CHO cells [1]) | EC50 (mouse GPR120) | EC50 (human GPR120; read-out: β-arrestin EC50, β-arrestin recruitment in U2OS-hGPR120 cells, mean ± SEM) | cAMP production in islets from GPR120 null mice [2] | DMR response in control CHO cells (control CHO cells [3]) | EC50 (human GPR120)
1 | 3-(3,5-difluoro-4-((3-methyl-1-phenyl-1H-pyrazol-5-yl)methoxy)phenyl)-2-methylpropanoic acid [Metabolex-36] | no increase | 130 ± 20 nM | 1400 ± 700 nM | no effect | without activity | 
2 | C#Cc1cc(Oc2cccnc2)cc(N2Cc3ccccc3S2(=O)=O)c1 [AZ13581837, 2-(3-ethynyl-5-(3-pyridyloxy)phenyl)-3H-1,2-benzothiazole 1,1-dioxide] | no increase | 4.3 ± 0.6 nM |  | no effect | without activity | 5.2 ± 0.4 nM
